The text below walks through data of ChEMBL document CHEMBL1154028, “Pyrazole acids as niacin receptor agonists for the treatment of dyslipidemia” (Bioorg Med Chem Lett, 2009).

Active and inactive are the calls of the source. No cut-off for these calls is given here.

Data set [1] addresses Hydroxycarboxylic acid receptor 2 (Homo sapiens) (UniProt Q8TDS4). The data set is described as follows: Displacement of [3H]niacin from human niacin receptor expressed in […] cells at 25 uM in absence of 5% human serum. It counts as cell-based.
Data set [2] relates to Rattus norvegicus. The data set is described as follows: Decrease in blood free fatty acid level in rat at 100 mg/kg, po after 20 mins. Set-up: dose 100 mg/kg. The class given is functional, organism-based.
For data set [3], the target named is Hydroxycarboxylic acid receptor 2 (Homo sapiens) (UniProt Q8TDS4). The data set is described as follows: Displacement of [3H]niacin from human niacin receptor expressed in […] cells at 25 uM in presence of 5% human serum. The class given is cell-based.
Data set [4] can be described thus: Oral bioavailability in mouse at 2 mg/kg. Conditions: in vivo. It counts as ADME, organism-based.
Data set [5] is described as follows: Half life in mouse at 1 mg/kg, iv or 2 mg/kg, po. Conditions: in vivo. It counts as ADME, organism-based.
Data set [6] is described as follows: Cmax in mouse at 1 mg/kg, iv or 2 mg/kg, po. The class given is ADME, organism-based. Conditions: in vivo.
Data set [7] is described as follows: Volume of distribution at steady state in mouse at 1 mg/kg, iv or 2 mg/kg, po. The class given is ADME, organism-based. Conditions: in vivo, read-out: Vdss.
The nature of data set [8]: Plasma clearance in mouse at 1 mg/kg, iv or 2 mg/kg, po. The class given is ADME, organism-based.
For data set [9], the system named is Rattus norvegicus. The data set is described as follows: Decrease in blood free fatty acid level in rat at 3 mg/kg, po. The arrangement: scale not given: the % may be the effect or the level left. The class given is functional.
Data set [10] has as its system Rattus norvegicus. The data set is described as follows: Decrease in blood free fatty acid level in po dosed rat.
For the next data set, the system named is Blood. The data set is described as follows: Drug level in rat blood at 30 mg/kg, sc. The class given is ADME, organism-based. The arrangement: dose 30 mg/kg, route subcutaneous. Conditions: in vivo, read-out: Drug uptake.
For data set [11], the system named is Rattus norvegicus. The data set is described as follows: Toxicity in rat assessed as changes in rat ear blood perfusion upto 30 mg/kg, sc. It counts as organism-based. The arrangement: dose 30 mg/kg, route subcutaneous. Conditions: in vivo.

Chain of Hydroxycarboxylic acid receptor 2 (Homo sapiens) (Q8TDS4 whole entry): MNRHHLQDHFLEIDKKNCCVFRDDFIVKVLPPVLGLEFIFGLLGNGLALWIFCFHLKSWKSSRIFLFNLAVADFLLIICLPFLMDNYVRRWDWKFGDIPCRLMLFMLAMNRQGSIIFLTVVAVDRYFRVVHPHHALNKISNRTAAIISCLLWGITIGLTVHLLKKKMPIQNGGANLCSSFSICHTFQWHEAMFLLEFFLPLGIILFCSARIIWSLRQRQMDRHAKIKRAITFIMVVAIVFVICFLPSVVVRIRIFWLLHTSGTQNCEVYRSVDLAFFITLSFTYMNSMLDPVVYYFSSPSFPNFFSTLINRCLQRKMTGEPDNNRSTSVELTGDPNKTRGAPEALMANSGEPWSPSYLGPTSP

For the compound `O=C(O)c1n[nH]c2c1CC(c1cc(F)ccc1F)CC2` (centres undefined), the values for the Activity in data set [1] and in data set [3] were 56% and 84%, respectively. Further, the outcome in the data set with Rattus norvegicus [2] was Active.
Consider `O=C(O)c1n[nH]c2c1CCC(c1ccccc1)C2` (racemic), for which, in data set [1], the Activity is 63%.
Turning to `Fc1ncccc1C1CCC2=C(C1)C(=C1N=NN=N1)N=N2` (centres undefined), the Activity in [1] came to 40%; in data set [3], 75%.
On to `Fc1ccc(F)c(C2CCc3[nH]nc(-c4nnn[nH]4)c3C2)c1` (racemic), for which the Activity in data set [3] is 17%.
`O=C(O)c1n[nH]c2c1CC(c1cccnc1F)CC2` (racemic) had a bioavailability in [4] of 47%. Also, the Activity in data set [1] came out at 90%; in data set [3], 88%. This compound had a half-life in data set [5] of 2.6 h. In addition, the highest concentration (Cmax) in data set [6] was 2.3 µM. Moreover, the Vd in data set [7] came to 2.4 L/kg. For the same compound, the clearance in data set [8] was 1.26 L/h/kg.
On to `O=C(O)c1n[nH]c2c1CC(c1cc(F)ccc1F)CC2` (racemic), for which, in [4], the bioavailability was 53%. In [5], this compound gave a half-life of 2.9 h. Also, in data set [6], the peak level (Cmax) was 3.3 µM. The Vd in data set [7] was determined as 1.4 L/kg. The compound further showed a clearance in [8] of 0.498 L/h/kg.
With `O=C(O)c1n[nH]c2c1CC(c1ccccc1)CC2` (racemic), the Activity in data set [1] came to 19%; in data set [3], 35%.
For `O=C(O)c1n[nH]c2c1CC(c1ccccc1Cl)CC2` (racemic), the Activity in [3] came out at 20%.
Same read-out and setting: for `O=C(O)c1n[nH]c2c1CC(c1ccccc1F)CC2` (racemic) the value was 18%.
For the compound `Br.O=C(O)c1n[nH]c2c1CC(c1cc(F)ccc1F)CC2` (centres undefined), the Activity with Rattus norvegicus [9] was 50%; with Rattus norvegicus [11], “Non-toxic”. In the data set on Rattus norvegicus [10], this compound returned an EC50 of 3 µM. Further, the concentration with Blood was 135 µM.
`O=C(O)c1n[nH]c2c1CC(c1ccnc(F)c1)CC2` (racemic): the Activity in data set [1] came out at 60%; in [3] it was 69%.
